Read-outs that look alike come from different tables or passages of the source.
What was measured:
[1] = target: T1, AR (Homo sapiens, UniProt P10275); assay: SAFETYscan NHR Nuclear Translocation; type: cell-based; set-up: dose or concentration left out as unconfirmed
T1 construct: purchased Eurofins DiscoverX (KINOMEscan; SAFETYscan E/IC50 ELECT)
Description: (§1) The specificity of EDG-5506 for fast skeletal myosin over other, unrelated proteins was confirmed using two off-target binding and activity screens. […] A second off-target panel (SAFETYscan E/IC50 ELECT, Eurofins DiscoverX) tested in vitro enzyme activity against 78 proteins, including GPCR, ion channel, kinases, nuclear hormone receptors, and transporters. In all assays, the IC50 of EDG-5506 was more than 10 μM (Supplemental Data File 1).

[2] = target: T2, AURKB (Homo sapiens, UniProt Q96GD4); assay: KINOMEscan scanEDGE; type: binding; conditions: 20 uM
T2 construct: purchased Eurofins DiscoverX (KINOMEscan; SAFETYscan E/IC50 ELECT)
T2 sequence (Q96GD4 whole entry): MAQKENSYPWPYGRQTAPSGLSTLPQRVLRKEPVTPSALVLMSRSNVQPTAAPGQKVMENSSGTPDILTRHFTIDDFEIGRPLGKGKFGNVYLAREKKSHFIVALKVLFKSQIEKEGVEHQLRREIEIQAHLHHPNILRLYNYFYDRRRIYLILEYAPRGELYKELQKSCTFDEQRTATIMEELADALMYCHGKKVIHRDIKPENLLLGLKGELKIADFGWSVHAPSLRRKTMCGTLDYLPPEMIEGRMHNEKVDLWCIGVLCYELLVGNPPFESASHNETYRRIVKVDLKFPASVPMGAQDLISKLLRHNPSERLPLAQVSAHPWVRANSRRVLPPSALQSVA

[3] = target: T3, RIOK2 (Homo sapiens, UniProt Q9BVS4); assay: KINOMEscan scanEDGE; type: binding; conditions: 20 uM
T3 construct: purchased Eurofins DiscoverX (KINOMEscan; SAFETYscan E/IC50 ELECT)

[4] = target: T4, ABL1-nonphosphorylated (Homo sapiens, UniProt P00519); assay: KINOMEscan scanEDGE; type: binding; conditions: 20 uM
T4 construct: purchased Eurofins DiscoverX (KINOMEscan; SAFETYscan E/IC50 ELECT)

[5] = target: T5, ZAP70 (Homo sapiens, UniProt P43403); assay: KINOMEscan scanEDGE; type: binding; conditions: 20 uM
T5 construct: purchased Eurofins DiscoverX (KINOMEscan; SAFETYscan E/IC50 ELECT)

[6] = target: T6, PAK2 (Homo sapiens, UniProt Q13177); assay: KINOMEscan scanEDGE; type: binding; conditions: 20 uM
T6 construct: purchased Eurofins DiscoverX (KINOMEscan; SAFETYscan E/IC50 ELECT)

[7] = target: T7, ROCK2 (Homo sapiens, UniProt O75116); assay: KINOMEscan scanEDGE; type: binding; conditions: 20 uM
T7 construct: purchased Eurofins DiscoverX (KINOMEscan; SAFETYscan E/IC50 ELECT)

[8] = target: T8, BRAF (Homo sapiens, UniProt P15056); assay: KINOMEscan scanEDGE; type: binding; conditions: 20 uM
T8 construct: purchased Eurofins DiscoverX (KINOMEscan; SAFETYscan E/IC50 ELECT)

[9] = target: T9, MKNK2 (Homo sapiens, UniProt Q9HBH9); assay: KINOMEscan scanEDGE; type: binding; conditions: 20 uM
T9 construct: purchased Eurofins DiscoverX (KINOMEscan; SAFETYscan E/IC50 ELECT)

[10] = target: T10, FGFR3 (Homo sapiens, UniProt P22607); assay: KINOMEscan scanEDGE; type: binding; conditions: 20 uM
T10 construct: purchased Eurofins DiscoverX (KINOMEscan; SAFETYscan E/IC50 ELECT)
T10 sequence (P22607 23-806): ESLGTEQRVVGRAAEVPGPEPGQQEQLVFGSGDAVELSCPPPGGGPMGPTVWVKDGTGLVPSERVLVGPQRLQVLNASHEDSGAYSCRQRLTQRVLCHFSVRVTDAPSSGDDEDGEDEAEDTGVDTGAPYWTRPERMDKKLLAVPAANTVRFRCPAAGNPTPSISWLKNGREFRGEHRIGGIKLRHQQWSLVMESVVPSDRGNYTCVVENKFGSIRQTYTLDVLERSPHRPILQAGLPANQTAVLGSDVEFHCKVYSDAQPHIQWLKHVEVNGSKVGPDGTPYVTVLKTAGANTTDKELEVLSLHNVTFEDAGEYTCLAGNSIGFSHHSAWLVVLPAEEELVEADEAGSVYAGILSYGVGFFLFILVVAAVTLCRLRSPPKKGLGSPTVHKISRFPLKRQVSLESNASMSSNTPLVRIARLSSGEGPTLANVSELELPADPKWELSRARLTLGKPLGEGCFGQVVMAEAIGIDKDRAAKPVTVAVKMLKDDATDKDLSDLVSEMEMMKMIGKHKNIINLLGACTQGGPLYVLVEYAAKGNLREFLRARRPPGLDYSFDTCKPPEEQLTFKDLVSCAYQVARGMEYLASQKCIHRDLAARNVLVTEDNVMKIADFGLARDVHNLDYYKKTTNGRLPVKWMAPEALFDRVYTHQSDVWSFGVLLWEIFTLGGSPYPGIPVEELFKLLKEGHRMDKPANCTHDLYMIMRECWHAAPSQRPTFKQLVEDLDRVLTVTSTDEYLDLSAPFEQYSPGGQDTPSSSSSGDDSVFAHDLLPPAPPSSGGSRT

[11] = target: T11, SERT (Homo sapiens, UniProt P31645); assay: SAFETYscan Transporter; type: cell-based; set-up: dose or concentration left out as unconfirmed; conditions: read-out: Max Response (%) (Antagonist)
T11 construct: purchased Eurofins DiscoverX (KINOMEscan; SAFETYscan E/IC50 ELECT)
Description: as §1

[12] = target: T12, NET (Homo sapiens, UniProt P23975); assay: SAFETYscan Transporter; type: cell-based; set-up: dose or concentration left out as unconfirmed; conditions: read-out: Max Response (%) (Antagonist)
T12 construct: purchased Eurofins DiscoverX (KINOMEscan; SAFETYscan E/IC50 ELECT)
T12 sequence (P23975 whole entry): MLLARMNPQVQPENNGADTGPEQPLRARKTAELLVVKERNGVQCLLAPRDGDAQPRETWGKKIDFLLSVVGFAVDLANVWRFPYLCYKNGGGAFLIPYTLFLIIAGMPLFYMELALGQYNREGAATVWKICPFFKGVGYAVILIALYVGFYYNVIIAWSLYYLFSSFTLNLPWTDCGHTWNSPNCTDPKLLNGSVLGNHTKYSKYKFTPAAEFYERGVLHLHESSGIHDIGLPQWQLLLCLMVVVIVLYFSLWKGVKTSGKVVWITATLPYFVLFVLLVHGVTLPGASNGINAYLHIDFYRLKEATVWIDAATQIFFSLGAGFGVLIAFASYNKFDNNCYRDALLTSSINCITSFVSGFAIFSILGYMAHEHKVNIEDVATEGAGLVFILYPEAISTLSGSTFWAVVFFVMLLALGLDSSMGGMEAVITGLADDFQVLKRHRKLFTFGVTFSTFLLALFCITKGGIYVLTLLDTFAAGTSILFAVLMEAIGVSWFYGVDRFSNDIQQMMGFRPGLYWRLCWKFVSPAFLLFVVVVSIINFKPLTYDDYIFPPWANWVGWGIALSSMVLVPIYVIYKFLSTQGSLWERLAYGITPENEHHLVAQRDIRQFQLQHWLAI
Description: as §1

[13] = target: T13, DAT (Homo sapiens, UniProt Q01959); assay: SAFETYscan Transporter; type: cell-based; set-up: dose or concentration left out as unconfirmed; conditions: read-out: Max Response (%) (Antagonist)
T13 construct: purchased Eurofins DiscoverX (KINOMEscan; SAFETYscan E/IC50 ELECT)
T13 sequence (Q01959 whole entry): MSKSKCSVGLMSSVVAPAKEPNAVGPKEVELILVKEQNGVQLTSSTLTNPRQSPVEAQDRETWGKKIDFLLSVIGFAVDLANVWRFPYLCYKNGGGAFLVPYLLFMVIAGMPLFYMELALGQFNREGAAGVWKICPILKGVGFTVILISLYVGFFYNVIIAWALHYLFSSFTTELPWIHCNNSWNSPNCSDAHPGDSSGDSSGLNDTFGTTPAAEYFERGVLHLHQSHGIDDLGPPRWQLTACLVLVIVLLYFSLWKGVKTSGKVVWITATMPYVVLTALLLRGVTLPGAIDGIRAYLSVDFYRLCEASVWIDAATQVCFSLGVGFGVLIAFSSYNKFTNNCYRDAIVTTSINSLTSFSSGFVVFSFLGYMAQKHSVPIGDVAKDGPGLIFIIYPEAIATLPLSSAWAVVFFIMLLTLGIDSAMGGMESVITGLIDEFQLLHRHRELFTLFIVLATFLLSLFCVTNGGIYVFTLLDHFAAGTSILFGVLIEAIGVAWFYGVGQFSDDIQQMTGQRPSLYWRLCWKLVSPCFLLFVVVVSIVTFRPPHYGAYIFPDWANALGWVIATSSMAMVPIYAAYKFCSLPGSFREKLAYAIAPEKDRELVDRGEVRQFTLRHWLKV
Description: as §1

[14] = target: T14, PIM2 (Homo sapiens, UniProt Q9P1W9); assay: KINOMEscan scanEDGE; type: binding; conditions: 20 uM
T14 construct: purchased Eurofins DiscoverX (KINOMEscan; SAFETYscan E/IC50 ELECT)
T14 sequence (Q9P1W9 whole entry): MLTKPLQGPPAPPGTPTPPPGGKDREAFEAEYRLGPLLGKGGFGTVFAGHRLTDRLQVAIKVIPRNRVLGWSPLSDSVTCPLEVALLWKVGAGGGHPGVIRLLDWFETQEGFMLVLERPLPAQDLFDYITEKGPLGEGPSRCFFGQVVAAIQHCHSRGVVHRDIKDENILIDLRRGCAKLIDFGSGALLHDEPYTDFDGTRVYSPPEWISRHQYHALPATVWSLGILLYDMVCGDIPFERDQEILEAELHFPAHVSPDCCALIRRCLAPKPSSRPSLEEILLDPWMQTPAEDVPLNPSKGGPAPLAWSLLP

[15] = target: T15, JNK1 (Homo sapiens, UniProt P45983); assay: KINOMEscan scanEDGE; type: binding; conditions: 20 uM
T15 construct: purchased Eurofins DiscoverX (KINOMEscan; SAFETYscan E/IC50 ELECT)

[16] = target: T16, ULK2 (Homo sapiens, UniProt Q8IYT8); assay: KINOMEscan scanEDGE; type: binding; conditions: 20 uM
T16 construct: purchased Eurofins DiscoverX (KINOMEscan; SAFETYscan E/IC50 ELECT)

[17] = target: T17, PLK3 (Homo sapiens, UniProt Q9H4B4); assay: KINOMEscan scanEDGE; type: binding; conditions: 20 uM
T17 construct: purchased Eurofins DiscoverX (KINOMEscan; SAFETYscan E/IC50 ELECT)
T17 sequence (Q9H4B4 whole entry): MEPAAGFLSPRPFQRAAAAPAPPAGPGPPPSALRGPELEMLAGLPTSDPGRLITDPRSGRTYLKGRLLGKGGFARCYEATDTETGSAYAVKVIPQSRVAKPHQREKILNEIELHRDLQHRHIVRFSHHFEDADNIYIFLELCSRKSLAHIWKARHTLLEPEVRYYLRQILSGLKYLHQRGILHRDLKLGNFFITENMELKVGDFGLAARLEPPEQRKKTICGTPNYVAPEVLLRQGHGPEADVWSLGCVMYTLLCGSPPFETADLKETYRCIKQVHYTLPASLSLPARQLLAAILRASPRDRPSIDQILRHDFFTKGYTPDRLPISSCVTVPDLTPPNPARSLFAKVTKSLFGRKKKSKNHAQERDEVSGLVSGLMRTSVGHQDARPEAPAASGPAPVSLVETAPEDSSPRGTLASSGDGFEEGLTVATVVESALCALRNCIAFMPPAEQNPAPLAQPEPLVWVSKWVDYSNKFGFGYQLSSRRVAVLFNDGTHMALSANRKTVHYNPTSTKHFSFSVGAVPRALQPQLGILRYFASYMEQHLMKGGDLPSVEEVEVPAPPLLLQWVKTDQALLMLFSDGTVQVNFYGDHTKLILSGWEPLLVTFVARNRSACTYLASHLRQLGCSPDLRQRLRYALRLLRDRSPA

[18] = target: T18, IKK-beta (Homo sapiens, UniProt O14920); assay: KINOMEscan scanEDGE; type: binding; conditions: 20 uM
T18 construct: purchased Eurofins DiscoverX (KINOMEscan; SAFETYscan E/IC50 ELECT)
T18 sequence (O14920 whole entry): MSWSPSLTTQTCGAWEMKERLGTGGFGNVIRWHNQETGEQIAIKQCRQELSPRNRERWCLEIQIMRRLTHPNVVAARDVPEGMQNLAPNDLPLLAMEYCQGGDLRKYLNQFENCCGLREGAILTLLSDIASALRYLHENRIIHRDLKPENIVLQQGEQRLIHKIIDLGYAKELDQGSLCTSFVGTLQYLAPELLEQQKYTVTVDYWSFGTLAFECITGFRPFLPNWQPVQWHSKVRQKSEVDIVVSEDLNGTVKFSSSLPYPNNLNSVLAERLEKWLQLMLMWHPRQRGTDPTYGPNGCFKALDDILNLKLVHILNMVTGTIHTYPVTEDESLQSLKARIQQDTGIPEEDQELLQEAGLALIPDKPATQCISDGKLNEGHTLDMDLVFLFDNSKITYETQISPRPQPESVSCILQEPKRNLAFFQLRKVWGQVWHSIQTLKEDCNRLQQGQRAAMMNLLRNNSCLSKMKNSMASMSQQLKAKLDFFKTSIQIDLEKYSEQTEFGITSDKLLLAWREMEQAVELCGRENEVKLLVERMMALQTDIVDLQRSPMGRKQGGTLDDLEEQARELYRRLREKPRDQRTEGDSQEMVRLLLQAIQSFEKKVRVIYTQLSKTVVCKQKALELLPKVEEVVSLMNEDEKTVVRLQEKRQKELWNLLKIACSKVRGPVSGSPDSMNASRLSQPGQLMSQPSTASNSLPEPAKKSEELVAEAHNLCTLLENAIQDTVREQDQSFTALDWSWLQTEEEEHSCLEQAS

[19] = Muscle concentration in GRMD dogs; type: in vivo, dog; conditions: end of the dosing period
Description: We viewed data in mice as encouraging but were interested in testing EDG-5506 in dystrophic golden retriever (GRMD) dogs; their muscle composition and function more closely resemble that of humans ([40]). Older (7 months of age), disease-stable GRMD were dosed in 2-week periods with vehicle, then EDG-5506, followed by a vehicle washout. As fast fiber atrophy has been documented in DMD dogs ([16]), we confirmed sustained fast myosin from biopsies of age-matched WT/GRMD gastrocnemius muscle (Supplemental Figure 6A). EDG-5506 concentration was measured from a muscle biopsy at the end of the dosing period (4,951 ± 217 ng/g muscle). EDG-5506 administration was associated with a more than 50% decrease in CK, returning to pretreatment levels after compound washout (Figure 6A). Physical activity normally increases CK in GRMD ([41]), raising the question of whether EDG-5506 lowered CK via decreasing physical activity. We sought to test the effect of EDG-5506 on habitual activity in the same dogs using an activity monitor ([42]). EDG-5506 improved average daily activity by more than 30% (Figure 6B and Supplemental Figure 6B) with reversible increases in time active and decreases in time resting (Figure 6C). One GRMD used in the biomarker study was too severely progressed to participate in this study.

T1 sequence (P10275 whole entry): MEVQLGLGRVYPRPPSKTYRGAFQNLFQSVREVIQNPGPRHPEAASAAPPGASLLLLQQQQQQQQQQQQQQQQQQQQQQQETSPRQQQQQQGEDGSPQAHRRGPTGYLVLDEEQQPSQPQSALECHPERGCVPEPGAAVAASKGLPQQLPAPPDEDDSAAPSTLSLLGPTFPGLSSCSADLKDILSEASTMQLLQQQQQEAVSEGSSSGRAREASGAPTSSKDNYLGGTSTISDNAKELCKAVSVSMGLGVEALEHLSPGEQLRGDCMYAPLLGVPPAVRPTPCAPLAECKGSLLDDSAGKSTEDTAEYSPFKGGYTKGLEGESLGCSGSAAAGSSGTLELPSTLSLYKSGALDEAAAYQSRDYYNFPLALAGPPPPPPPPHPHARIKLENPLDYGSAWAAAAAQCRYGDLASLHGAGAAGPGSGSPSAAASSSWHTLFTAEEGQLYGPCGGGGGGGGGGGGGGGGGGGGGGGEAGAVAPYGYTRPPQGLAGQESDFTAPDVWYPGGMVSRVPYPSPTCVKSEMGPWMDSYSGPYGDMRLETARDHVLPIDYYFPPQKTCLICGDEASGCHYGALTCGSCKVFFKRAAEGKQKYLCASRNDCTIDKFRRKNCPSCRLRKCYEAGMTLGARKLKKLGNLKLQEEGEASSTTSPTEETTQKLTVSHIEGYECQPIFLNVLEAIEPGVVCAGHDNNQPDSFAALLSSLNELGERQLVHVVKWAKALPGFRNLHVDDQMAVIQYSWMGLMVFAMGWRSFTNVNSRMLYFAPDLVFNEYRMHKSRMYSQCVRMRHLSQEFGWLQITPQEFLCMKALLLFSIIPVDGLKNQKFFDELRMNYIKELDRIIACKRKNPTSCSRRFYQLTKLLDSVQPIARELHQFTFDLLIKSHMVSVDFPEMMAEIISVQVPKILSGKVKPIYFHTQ

O=c1ccc(-c2cnc(OCC(F)(F)F)nc2)nn1Cc1cncc(F)c1 [EDG-5506]
Emax ([1]; read-out: Max Response (%) (Agonist)): 0% | Emax ([1]; read-out: Max Response (%) (Antagonist)): 0% | binding, % of control [2]: 82 % of control | binding, % of control [3]: 80 % of control | binding, % of control [4]: 96 % of control | binding, % of control [5]: 85 % of control | binding, % of control [6]: 98 % of control | binding, % of control [7]: 89 % of control | binding, % of control [8]: 91 % of control | binding, % of control [9]: 92 % of control | binding, % of control [10]: 96 % of control | Emax [11]: 6.08% | Emax [12]: 4.79% | Emax [13]: 0% | binding, % of control [14]: 100 % of control | binding, % of control [15]: 72 % of control | binding, % of control [16]: 82 % of control | binding, % of control [17]: 95 % of control | binding, % of control [18]: 94 % of control | EDG-5506 concentration in muscle biopsy [19]: 4,951 ± 217 ng/g muscle

Reference: publication PMC10178848, “Modulating fast skeletal muscle contraction protects skeletal muscle in animal models of Duchenne muscular dystrophy” (The Journal of Clinical Investigation, 2023)
